This is an account of results in PMC5839409, “Targeting intracellular B2 receptors using novel cell-penetrating antagonists to arrest growth and induce apoptosis in human triple-negative breast cancer” (Oncotarget, 2018).

Square brackets hold non-standard residues; d marks the D form. Peptide text beside a SMILES is read from it.

Assay [1] addresses T1, B2R endogenously expressed in the human de-endothelized umbilical veins (Homo sapiens, UniProt P30411).
T1 construct: B2R endogenously expressed in the human de-endothelized umbilical veins (hUV); from tissue; host or cells: human umbilical vein, de-endothelized
T1 sequence (P30411 1-391): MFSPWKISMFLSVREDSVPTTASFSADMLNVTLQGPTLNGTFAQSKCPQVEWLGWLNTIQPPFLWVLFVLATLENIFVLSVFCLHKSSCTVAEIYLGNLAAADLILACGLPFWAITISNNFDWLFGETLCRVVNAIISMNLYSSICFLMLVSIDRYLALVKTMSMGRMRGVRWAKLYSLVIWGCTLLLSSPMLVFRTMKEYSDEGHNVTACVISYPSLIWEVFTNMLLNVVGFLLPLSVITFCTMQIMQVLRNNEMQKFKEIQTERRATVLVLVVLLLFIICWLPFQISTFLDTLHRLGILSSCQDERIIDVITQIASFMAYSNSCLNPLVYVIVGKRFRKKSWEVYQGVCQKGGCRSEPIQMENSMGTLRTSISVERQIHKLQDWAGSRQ
Put plainly: Functional bioassay on isolated human de-endothelized umbilical veins (hUV). Particulars: read-out: biological activity; agonists, isometric contraction of human vessels. How it is done:
For testing the pharmacological activities of agonists, complete concentration-contractile response curves to agents were done at the B2R endogenously expressed in the human de-endothelized umbilical veins (hUV), as previously described. EC50 values (or potencies) of the agonists were calculated from the obtained concentration-response curves. […] The collection of umbilical cords for the bioassays was approved by the local ethical committee, and maternal consent was obtained in every case.

The next assay has as its system MDA-MB-231 cells. Put plainly: Anchorage-dependent clonogenic assay. Format: cell-based, human. Conditions: 10-14 days. How it is done: MDA-MB-231 cells were plated at 200 cells/well in a six-well dish in 2 ml DMEM medium containing 10% FBS. […] After 10 to 14 days, colonies were fixed and stained with 0.5% methylene blue in 50% ethanol. Excess of staining solution was removed carefully with tap water and the plates were dried overnight. Colony counting and densitometric analyses (to measure total colony numbers and surface areas) were performed using the Image Pro Plus 5.1 software.

In the next assay the target is T2, human B2R (Homo sapiens, UniProt P30411).
T2 construct: expressed in transfected cells; host or cells: HEK-293T
T2 sequence (P30411 1-391): T1 sequence (P30411 1-391)
In words: Radioligand competition binding on live adherent HEK-293T cells transiently transfected with hB2R. Particulars: read-out: binding affinity; agonists, HEK-293T cells transfected with B2R. (Loss of bound radioactivity is the signal in a displacement assay; it reports binding, not function.)

As to `N=C(N)NCCC[C@H](NC(=O)[C@H](Cc1ccccc1)NC(=O)[C@@H]1CCCN1C(=O)[C@H](CO)NC(=O)[C@H](Cc1ccccc1)NC(=O)CNC(=O)[C@@H]1CCCN1C(=O)[C@@H]1CCCN1C(=O)[C@H](CCCNC(=N)N)NC(=O)CNC(=O)CNC(=O)CNC(=O)[C@@H](CCCNC(=N)N)NC(=O)[C@@H](CCCNC(=N)N)NC(=O)[C@@H](CCCNC(=N)N)NC(=O)[C@@H](CCC(N)=O)NC(=O)[C@@H](CCCNC(=N)N)NC(=O)[C@@H](CCCNC(=N)N)NC(=O)[C@@H](CCCCN)NC(=O)[C@@H](CCCCN)NC(=O)[C@@H](CCCNC(=N)N)NC(=O)CN)C(=O)O` [DTat-BK] (H-G[dR][dK][dK][dR][dR][dQ][dR][dR][dR]GGGRPPGFSPFR-OH; N-terminus and C-terminus assumed), the EC50 in assay [1] was determined as 350 ± 1 nM. In addition, in the assay with MDA-MB-231 cells, the “colony number (agonist effect)” value is “did not increase colony number” and the “colony surface area (agonist effect)” value is on record as “increase in colony surface area”. In addition, the IC50 on human B2R was found to be 110 ± 4 nM.
